{
  "source": "patent US20060142269A1",
  "about": "“New compounds” (priority 2004, published 2006)",
  "key": {"human 5-HT6 receptor [1]": {"biological_target": "T1, human 5-HT6 receptor (Homo sapiens, UniProt P50406)", "T1 construct": "expressed in transfected cells; host or cells: HEK293 (G-418 selected)", "T1 sequence (P50406 whole entry)": "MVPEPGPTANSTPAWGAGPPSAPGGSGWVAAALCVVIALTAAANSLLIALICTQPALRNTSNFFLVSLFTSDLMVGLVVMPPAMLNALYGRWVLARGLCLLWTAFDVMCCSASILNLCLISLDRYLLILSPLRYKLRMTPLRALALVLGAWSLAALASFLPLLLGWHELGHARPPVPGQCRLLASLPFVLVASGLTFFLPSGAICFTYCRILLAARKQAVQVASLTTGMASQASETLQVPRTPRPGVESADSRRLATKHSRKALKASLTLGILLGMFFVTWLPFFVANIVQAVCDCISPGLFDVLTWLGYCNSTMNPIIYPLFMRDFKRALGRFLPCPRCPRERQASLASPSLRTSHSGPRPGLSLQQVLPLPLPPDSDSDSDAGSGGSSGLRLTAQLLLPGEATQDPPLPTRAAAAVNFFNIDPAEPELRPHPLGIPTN", "assay": "5-HT6 receptor binding assay ([3H]-LSD displacement, SPA, membranes of transfected HEK293 cells)"}, "human 5-HT6 receptor [2]": {"biological_target": "T1, human 5-HT6 receptor", "assay": "5-HT6 receptor intrinsic activity assay (inhibition of 5-HT induced increase in cAMP in HEK293/5-HT6 cells)", "type": "cell-based", "settings": "read-out: Antagonist potency at the human 5-HT6 receptor, IC50,corr", "protocol": "(1997) Neuropharmacology 36: 713-720). Briefly, HEK293/5-HT6 cells were seeded in polylysine coated 96-well plates at a density of 25,000/well and grown in DMEM (Dulbecco's Modified Eagle Medium) (without phenol-red) containing 5% dialyzed Foetal Bovine Serum for 48 h at 37° C. in a 5% CO2 incubator. The medium was then aspirated and replaced by 0.1 ml assay medium (Hanks Balance Salt Solution containing 20 mM HEPES, 1.5 mM isobutylmethylxanthine and 1 mg/ml bovine serum albumin). After addition of test substances, 50 μl dissolved in assay medium, the cells were incubated for 10 min at 37° C. in a 5% CO2 incubator. The medium was again aspirated and the cAMP content was determined using a radioactive cAMP kit (Amersham Pharmacia Biotech, BIOTRAK RPA559)."}, "[3]": {"settings": "[3H]LSD 3 nM, HEK293 membranes, read-out: Binding affinity (Ki) at the human 5-HT6 receptor"}},
  "note": "Counter-ions that a name gives are not always drawn. Like-named read-outs stand apart in the source and are kept apart here.",
  "data": [
    {"compound": "COc1ccc(C)cc1OS(=O)(=O)c1cc(N2CCNCC2)c2occc2c1", "note": "[Example 1, 2-Methoxy-5-methylphenyl 7-piperazin-1-yl-1-benzofuran-5-sulfonate, trifluoroacetate]", "values": [
      {"measurement": "Ki", "setting": "human 5-HT6 receptor [1]; [3]", "value": 0.6, "unit": "nM"}
    ]},
    {"compound": "O=S(=O)(Oc1ccccc1Cl)c1cc(N2CCNCC2)c2occc2c1", "note": "[Example 2, 2-Chlorophenyl 7-piperazin-1-yl-1-benzofuran-5-sulfonate, trifluoroacetate]", "values": [
      {"measurement": "Ki", "setting": "human 5-HT6 receptor [1]; [3]", "value": 2.3, "unit": "nM"},
      {"measurement": "IC50", "setting": "human 5-HT6 receptor [2]", "value": 24, "unit": "nM"}
    ]},
    {"compound": "O=S(=O)(Oc1ccccc1C(F)(F)F)c1cc(N2CCNCC2)c2occc2c1", "note": "[Example 3, 2-(Trifluoromethyl)phenyl 7-piperazin-1-yl-1-benzofuran-5-sulfonate, trifluoroacetate]", "values": [
      {"measurement": "Ki", "setting": "human 5-HT6 receptor [1]; [3]", "value": 2, "unit": "nM"}
    ]},
    {"compound": "COc1ccc(C)cc1OS(=O)(=O)c1cc(CN2CCN(C)CC2)c2occc2c1", "note": "[Example 5, 2-Methoxy-5-methylphenyl 7-[(4-methylpiperazin-1-yl)methyl]-1-benzofuran-5-sulfonate bis(trifluoroacetate)]", "values": [
      {"measurement": "IC50", "setting": "human 5-HT6 receptor [2]", "value": 49, "unit": "nM"}
    ]},
    {"compound": "NCCc1c[nH]c2ccc(O)cc12", "note": "[Example 5-HT, 5-hydroxytryptamine]", "values": [
      {"measurement": "Hill coefficient", "setting": "human 5-HT6 receptor [1]; over three experiments", "value": "0.94 (SD 0.09)"}
    ]},
    {"compound": "CN1CCN(c2cc(S(=O)(=O)Oc3cccnc3)cc3ccoc23)CC1", "note": "[Example 7, Pyridin-3-yl 7-(4-methylpiperazin-1-yl)-1-benzofuran-5-sulfonate trifluoroacetate]", "values": [
      {"measurement": "IC50", "setting": "human 5-HT6 receptor [2]", "value": 73, "unit": "nM"}
    ]},
    {"compound": "COc1cccc(OS(=O)(=O)c2cc(N3CCN[C@H](C)C3)c3occc3c2)c1OC", "note": "[Example 9, 2,3-Dimethoxyphenyl 7-[(3R)-3-methylpiperazin-1-yl]-1-benzofuran-5-sulfonate trifluoroacetate]", "values": [
      {"measurement": "IC50", "setting": "human 5-HT6 receptor [2]", "value": 49, "unit": "nM"}
    ]},
    {"compound": "C[C@@H]1CN(Cc2cc(S(=O)(=O)Oc3ccccc3C(N)=O)cc3ccoc23)CCN1", "note": "[Example 16, 2-(Aminocarbonyl)phenyl 7-{[(3R)-3-methylpiperazin-1-yl]methyl}-1-benzofuran-5-sulfonate bis(trifluoroacetate)]", "values": [
      {"measurement": "IC50", "setting": "human 5-HT6 receptor [2]", "value": 199, "unit": "nM"}
    ]},
    {"compound": "COc1ccc(C)cc1OS(=O)(=O)c1cc(CN2CCCNCC2)c2occc2c1", "note": "[Example 18, 2-Methoxy-5-methylphenyl 7-(1,4-diazepan-1-ylmethyl)-1-benzofuran-5-sulfonate trifluoroacetate]", "values": [
      {"measurement": "IC50", "setting": "human 5-HT6 receptor [2]", "value": 487, "unit": "nM"}
    ]},
    {"compound": "CN1C[C@@H](NS(=O)(=O)N(C)C)C[C@@H]2c3cccc4c3c(cn4C)C[C@H]21", "note": "[mesulergide]", "values": [
      {"measurement": "Ki", "setting": "human 5-HT6 receptor [1]; over all average, 5-HT tested against two different membrane preparations, read-out: Ki value, inhibition of [3H]LSD binding (rank order of potency of unlabelled ligands)", "value": 1970, "unit": "nM"}
    ]},
    {"compound": "CC[C@@H](CO)NC(=O)[C@@H]1C=C2c3cccc4c3c(cn4C)C[C@H]2N(C)C1", "note": "[methysergide]", "values": [
      {"measurement": "Ki", "setting": "human 5-HT6 receptor [1]", "value": 482, "unit": "nM"}
    ]}
  ]
}
